Test results as given in US9751854B2 (Millennium Pharmaceuticals, Inc., priority 2014, dated 2017).

Target: human VPS34 (Homo sapiens (Human), UniProt Q8NEB9)
Experiment: Human VPS34 enzyme assay (Adapta TR-FRET ADP detection)
Type: biochemical
Parameters: Percent Inhibition: dose or concentration left out as unconfirmed
Settings: for IC50: IC50 range class

human VPS34, sequence (Q8NEB9 whole entry): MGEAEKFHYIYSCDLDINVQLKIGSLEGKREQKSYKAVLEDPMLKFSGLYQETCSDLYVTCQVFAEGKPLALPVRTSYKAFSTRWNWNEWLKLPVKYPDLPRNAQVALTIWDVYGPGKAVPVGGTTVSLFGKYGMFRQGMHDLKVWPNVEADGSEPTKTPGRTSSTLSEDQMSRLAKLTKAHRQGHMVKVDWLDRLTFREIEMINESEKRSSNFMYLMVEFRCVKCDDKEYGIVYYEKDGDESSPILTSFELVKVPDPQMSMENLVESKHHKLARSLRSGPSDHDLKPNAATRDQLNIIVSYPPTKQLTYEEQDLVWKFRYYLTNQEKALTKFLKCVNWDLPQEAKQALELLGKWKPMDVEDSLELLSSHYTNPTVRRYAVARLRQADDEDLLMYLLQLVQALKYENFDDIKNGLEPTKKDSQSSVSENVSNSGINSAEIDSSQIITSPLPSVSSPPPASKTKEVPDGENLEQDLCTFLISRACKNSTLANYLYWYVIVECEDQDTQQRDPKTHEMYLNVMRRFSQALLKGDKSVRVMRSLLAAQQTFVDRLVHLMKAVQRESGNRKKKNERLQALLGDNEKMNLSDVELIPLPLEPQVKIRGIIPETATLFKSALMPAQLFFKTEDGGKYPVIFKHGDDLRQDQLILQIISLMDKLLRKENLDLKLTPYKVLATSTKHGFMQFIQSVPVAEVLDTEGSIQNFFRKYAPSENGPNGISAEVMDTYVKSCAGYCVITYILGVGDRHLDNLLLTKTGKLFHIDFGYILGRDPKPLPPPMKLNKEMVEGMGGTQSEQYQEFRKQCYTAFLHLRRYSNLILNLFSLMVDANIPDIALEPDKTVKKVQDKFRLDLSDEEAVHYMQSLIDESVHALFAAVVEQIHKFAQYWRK

| Compound | IC50 | Percent Inhibition |
| --- | --- | --- |
| Cc1c(-c2ccnc(Nc3ccnc(C4CC4)n3)c2)cnc(Cl)c1C(=O)O [Compound I-369, 6-chloro-2′-((2-cyclopropylpyrimidin-4-yl)amino)-4-methyl-[3,4′-bipyridine]-5-carboxylic acid] | 10 to 50 nM |  |
| CC(=O)Nc1cc(-c2ccnc(Nc3ccnc(C4CC4)n3)c2)cn2nccc12 [Compound I-371, N-(6-{2-[(2-cyclopropylpyrimidin-4-yl)amino]pyridin-4-yl}pyrazolo[1,5-a]pyridin-4-yl)acetamide] | < 10 nM | >99% |
| CC(=O)Nc1cc(-c2cnc3c(c2)S(=O)(=O)N(C24CC(C2)C4)CCO3)ccn1 [Compound I-376, N-{4-[2-(bicyclo[1.1.1]pent-1-yl)-1,1-dioxido-3,4-dihydro-2H-pyrido[2,3-b][1,4,5]oxathiazepin-8-yl]pyridin-2-yl}acetamide] | 10 to 50 nM |  |
| Cc1nccc(Nc2cc(-c3cnc4c(c3)C(=O)N(Cc3ccccc3)CC4)ccn2)n1 [Compound I-378, 6-benzyl-3-[2-[(2-methylpyrimidin-4-yl)amino]-4-pyridyl]-7,8-dihydro-1,6-naphthyridin-5-one] | > 100 nM |  |
| Cc1nccc(Nc2cc(-c3cnc(C)c(OCCN(C)C)c3)ccn2)n1 [Compound I-379, 5-[2-(dimethylamino)ethoxy]-6-methyl-N-(2-methylpyrimidin-4-yl)-3,4′-bipyridin-2′-amine] | > 100 nM |  |
| CC(=O)Nc1cc(-c2cnc(C#N)c(N3CCCCC3C)c2)ccn1 (stereo not drawn) [Compound I-380, N-[6-cyano-5-(2-methylpiperidin-1-yl)-3,4′-bipyridin-2′-yl]acetamide] | > 100 nM |  |
| CC(=O)Nc1cc(-c2cnc(C)c(N3CCN(C)S3(=O)=O)c2)ccn1 [Compound I-386, N-[6-methyl-5-(5-methyl-1,1-dioxido-1,2,5-thiadiazolidin-2-yl)-3,4′-bipyridin-2′-yl]acetamide] | 10 to 50 nM |  |
| CC(=O)Nc1cc(-c2cnc(C)c(N3CCCNS3(=O)=O)c2)ccn1 [Compound I-387, N-[5-(1,1-dioxido-1,2,6-thiadiazinan-2-yl)-6-methyl-3,4′-bipyridin-2′-yl]acetamide] | 10 to 50 nM |  |
| Cc1ncc(-c2ccnc(NC(=O)C3CC3)c2)cc1C(=O)N(C)C12CC(C1)C2 [Compound I-388, N-(bicyclo[1.1.1]pent-1-yl)-2′-[(cyclopropylcarbonyl)amino]-N,6-dimethyl-3,4′-bipyridine-5-carboxamide] | 50 to 100 nM |  |
| Cc1ccc(Oc2cc(-c3ccnc(Nc4ccnc(C)n4)c3)cnc2C)nc1 [Compound I-390, 6-methyl-5-[(5-methylpyridin-2-yl)oxy]-N-(2-methylpyrimidin-4-yl)-3,4′-bipyridin-2′-amine] | 10 to 50 nM |  |
| CC(=O)Nc1cc(-c2cncc(S(=O)(=O)N3CC(F)(F)C3)c2)ccn1 [Compound I-391, N-{5-[(3,3-difluoroazetidin-1-yl)sulfonyl]-3,4′-bipyridin-2′-yl}acetamide] | 10 to 50 nM |  |
| CC(=O)Nc1cc(-c2cncc(N(C)C(=O)c3ccc(F)cc3F)c2)ccn1 [Compound I-397, N-(2′-acetamido-3,4′-bipyridin-5-yl)-2,4-difluoro-N-methylbenzamide] | 50 to 100 nM |  |
| CC(=O)Nc1cc(-c2cncc(N3CCOc4cc(F)ccc4S3(=O)=O)c2)ccn1 [Compound I-405] | 10 to 50 nM |  |
| Cc1nccc(Nc2cc(-c3cnc4c(c3)C(=O)NCC4)ccn2)n1 [Compound I-406, 3-[2-[(2-methylpyrimidin-4-yl)amino]-4-pyridyl]-7,8-dihydro-6H-1,6-naphthyridin-5-one] | > 100 nM |  |
| Cc1nccc(Nc2cc(-c3cc(NC(=O)N4CC(F)(F)C4)c4ccnn4c3)ccn2)n1 [Compound I-407, 3,3-difluoro-N-(6-{2-[(2-methylpyrimidin-4-yl)amino]pyridin-4-yl}pyrazolo[1,5-a]pyridin-4-yl)azetidine-1-carboxamide] | 10 to 50 nM |  |
| Cc1nccc(Nc2cc(-c3cncc(C(=O)N4CC(F)(F)C4)c3)ccn2)n1 [Compound I-408, (3,3-difluoroazetidin-1-yl){2′-[(2-methylpyrimidin-4-yl)amino]-3,4′-bipyridin-5-yl}methanone] | 10 to 50 nM |  |
| CC(=O)Nc1cc(-c2cnc(N)c(C(=O)NC(=N)N)c2)ccn1 [Compound I-409, 2′-acetamido-6-amino-N-carbamimidoyl-3,4′-bipyridine-5-carboxamide] | > 100 nM |  |

More lines, now with the values ahead:

| IC50 | Percent Inhibition | Compound |
| --- | --- | --- |
| 10 to 50 nM |  | CCN(CC)S(=O)(=O)c1cc(-c2ccnc(NC(C)=O)c2)cnc1C [Compound I-370, N-[5-(diethylsulfamoyl)-6-methyl-3,4′-bipyridin-2′-yl]acetamide] |
| < 10 nM | >99% | CC(=O)Nc1cc(-c2cnc(Cl)c(NS(=O)(=O)N(C)C)c2)ccn1 [Compound I-372, N-{6-chloro-5-[(dimethylsulfamoyl)amino]-3,4′-bipyridin-2′-yl}acetamide] |
| 10 to 50 nM |  | CCCCS(=O)(=O)Nc1cc(-c2ccnc(NC(C)=O)c2)cnc1C [Compound I-373, N-{5-[(butylsulfonyl)amino]-6-methyl-3,4′-bipyridin-2′-yl}acetamide] |
| 10 to 50 nM |  | CC(=O)Nc1cc(-c2cnc(C)c(NS(=O)(=O)N3CCC(F)(F)CC3)c2)ccn1 [Compound I-374, N-(5-{[(4,4-difluoropiperidin-1-yl)sulfonyl]amino}-6-methyl-3,4′-bipyridin-2′-yl)acetamide] |
| < 10 nM |  | COc1nc(C)nc(Nc2cc(-c3cnc(C)c(NS(=O)(=O)c4ccc(F)cc4F)c3)ccn2)n1 [Compound I-375, 2,4-difluoro-N-{2′-[(4-methoxy-6-methyl-1,3,5-triazin-2-yl)amino]-6-methyl-3,4′-bipyridin-5-yl}benzenesulfonamide] |
| 10 to 50 nM |  | CC(=O)Nc1cc(-c2cnc(C)c(NS(=O)(=O)c3cccc(F)c3F)c2)ccn1 [Compound I-377, N-(5-{[(2,3-difluorophenyl)sulfonyl]amino}-6-methyl-3,4′-bipyridin-2′-yl)acetamide] |
| < 10 nM |  | Cc1nccc(Nc2cc(-c3cnc(Cl)c(NS(=O)(=O)N(C)C)c3C)ccn2)n1 [Compound I-381, N′-{6-chloro-4-methyl-2′-[(2-methylpyrimidin-4-yl)amino]-3,4′-bipyridin-5-yl}-N,N-dimethylsulfuric diamide] |
| < 10 nM |  | Cc1nc(Nc2cc(-c3cnc(C)c(NS(=O)(=O)c4ccc(F)cc4F)c3)ccn2)nc(C2CC2)n1 [Compound I-382, N-{2′-[(4-cyclopropyl-6-methyl-1,3,5-triazin-2-yl)amino]-6-methyl-3,4′-bipyridin-5-yl}-2,4-difluorobenzenesulfonamide] |
| 10 to 50 nM |  | CCOC(=O)Nc1cc(-c2cnc(Cl)c(NS(=O)(=O)c3ccc(F)cc3F)c2C)ccn1 [Compound I-383, ethyl (6-chloro-5-{[(2,4-difluorophenyl)sulfonyl]amino}-4-methyl-3,4′-bipyridin-2′-yl)carbamate] |
| > 100 nM |  | CC(=O)Nc1cc(-c2cncc(N(CCO)S(=O)(=O)c3ccc(F)cc3F)c2)ccn1 [Compound I-384, N-(5-{[(2,4-difluorophenyl)sulfonyl](2-hydroxyethyl)amino}-3,4′-bipyridin-2′-yl)acetamide] |
| < 10 nM |  | CCOC(=O)Nc1cc(-c2cnc(C)c(NS(=O)(=O)c3ccc(F)cc3F)c2)ccn1 [Compound I-389, ethyl (5-{[(2,4-difluorophenyl)sulfonyl]amino}-6-methyl-3,4′-bipyridin-2′-yl)carbamate] |
| > 100 nM |  | CC(=O)Nc1cc(-c2cnc(C)c(Nc3nc4ccccc4o3)c2)ccn1 [Compound I-392, N-[5-(1,3-benzoxazol-2-ylamino)-6-methyl-3,4′-bipyridin-2′-yl]acetamide] |
| 10 to 50 nM |  | CC(=O)Nc1cc(-c2cncc(NS(=O)(=O)c3ccc(F)cc3F)c2Cl)ccn1 [Compound I-394, N-(4-chloro-5-{[(2,4-difluorophenyl)sulfonyl]amino}-3,4′-bipyridin-2′-yl)acetamide] |
| 10 to 50 nM |  | CC(=O)Nc1cc(-c2cnc(C)c(S(N)(=O)=O)c2)ccn1 [Compound I-395, N-(6-methyl-5-sulfamoyl-3,4′-bipyridin-2′-yl)acetamide] |
| 10 to 50 nM |  | CC(=O)Nc1cc(-c2cncc(S(=O)(=O)NC3CCC3)c2)ccn1 [Compound I-396, N-[5-(cyclobutylsulfamoyl)-3,4′-bipyridin-2′-yl]acetamide] |
| > 100 nM |  | CC(=O)Nc1cc(-c2cnc(C)c(N(C)C(=O)c3ccc(F)cc3F)c2)ccn1 [Compound I-398, N-(2′-acetamido-6-methyl-3,4′-bipyridin-5-yl)-2,4-difluoro-N-methylbenzamide] |
| 10 to 50 nM |  | CC(=O)Nc1cc(-c2cnc(Cl)c(NS(=O)(=O)c3ccc(Cl)cc3F)c2C)ccn1 [Compound I-399, N-(6-chloro-5-{[(4-chloro-2-fluorophenyl)sulfonyl]amino}-4-methyl-3,4′-bipyridin-2′-yl)acetamide] |
| < 10 nM |  | CC(=O)Nc1cc(-c2cnc(Cl)c(NS(=O)(=O)c3cc(Cl)ccc3Cl)c2C)ccn1 [Compound I-401, N-(6-chloro-5-{[(2,5-dichlorophenyl)sulfonyl]amino}-4-methyl-3,4′-bipyridin-2′-yl)acetamide] |
| 10 to 50 nM |  | Cc1nccc(Nc2cc(-c3cnc(Cl)c(C(=O)O)c3C)ccn2)n1 [Compound I-402, 6-chloro-4-methyl-2′-[(2-methylpyrimidin-4-yl)amino]-3,4′-bipyridine-5-carboxylic acid] |
| 10 to 50 nM |  | CC(=O)Nc1cc(-c2cc(NS(=O)(=O)c3ccc(F)cc3F)c3ccnn3c2)ccn1 [Compound I-404, N-[4-(4-{[(2,4-difluorophenyl)sulfonyl]amino}pyrazolo[1,5-a]pyridin-6-yl)pyridin-2-yl]acetamide] |
| 10 to 50 nM |  | CC(=O)Nc1cc(-c2cnc(Cl)c(S(=O)(=O)NC(C)(C)C)c2C)ccn1 [Compound I-410, N-[5-(tert-butylsulfamoyl)-6-chloro-4-methyl-3,4′-bipyridin-2′-yl]acetamide] |
| < 10 nM |  | CC(=O)Nc1cc(-c2cnc(C#N)c(NS(=O)(=O)c3ccc(F)cc3F)c2)ccn1 [Compound I-411, N-(6-cyano-5-{[(2,4-difluorophenyl)sulfonyl]amino}-3,4′-bipyridin-2′-yl)acetamide] |
| 10 to 50 nM |  | CC(=O)Nc1cc(-c2cnc(C)c(NS(=O)(=O)CC(F)F)c2)ccn1 [Compound I-412, N-(5-{[(2,2-difluoroethyl)sulfonyl]amino}-6-methyl-3,4′-bipyridin-2′-yl)acetamide] |
